{"source": "patent US12410152B2", "about": "“Oxazole and thioazole-type cullin ring ubiquitin ligase compounds and uses thereof” (Proxygen GmbH, priority 2019, dated 2025)", "key": {"[1]": {"system": "KBM7 cells (DCAF15 knockout)", "experiment": "Cell viability, KBM7 DCAF15 knockout vs WT (72 hour treatment)", "assay_type": "cell-based, human", "description": "FIG. 18. (A) Cellular viability of KBM7 cells (WT or UBE2M mutant) after treatment with dCeMM.1. (72 hour treatment) (B) cellular viability of KBM7 cells (WT or DCAF15 knockout) after dose-ranging treatment with dCeMM.1 (72 hour treatment).\nIn another experiment, 2000 compounds were screened in a set up comparing their anti-proliferative effect in KBM7 cells modified in the UBE2M gene to wildtype KBM7 cells (FIG. 3). The PROTAC® ARV-771 was taken as positive control. Of note, among the identified hits was also dCeMM.1, which was similarly identified via the aforementioned DCAF15 restabilization assay."}, "RBM39": {"molecular_target": "T1, RBM39 (Homo sapiens, UniProt Q14498+Q66K64)", "T1 construct": "endogenous in cells; host or cells: KBM7 (WT or DCAF15 knockout) and 293T (DCAF15-HiBit or knockout)", "T1 sequence (Q14498 2-530 limits assumed)": "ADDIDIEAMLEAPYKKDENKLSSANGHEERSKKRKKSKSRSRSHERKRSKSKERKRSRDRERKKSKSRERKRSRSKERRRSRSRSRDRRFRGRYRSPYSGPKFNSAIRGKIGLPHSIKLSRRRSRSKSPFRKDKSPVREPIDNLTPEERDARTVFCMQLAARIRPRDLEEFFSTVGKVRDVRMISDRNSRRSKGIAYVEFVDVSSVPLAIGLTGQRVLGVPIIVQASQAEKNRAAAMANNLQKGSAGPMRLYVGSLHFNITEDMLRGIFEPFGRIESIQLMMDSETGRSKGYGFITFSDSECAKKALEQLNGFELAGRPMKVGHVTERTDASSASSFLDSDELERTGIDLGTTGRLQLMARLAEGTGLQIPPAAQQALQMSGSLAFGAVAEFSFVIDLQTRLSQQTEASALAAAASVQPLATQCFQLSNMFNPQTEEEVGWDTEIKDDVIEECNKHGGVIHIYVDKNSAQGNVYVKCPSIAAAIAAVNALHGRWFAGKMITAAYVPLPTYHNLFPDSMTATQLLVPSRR", "T1 sequence (Q66K64 whole entry)": "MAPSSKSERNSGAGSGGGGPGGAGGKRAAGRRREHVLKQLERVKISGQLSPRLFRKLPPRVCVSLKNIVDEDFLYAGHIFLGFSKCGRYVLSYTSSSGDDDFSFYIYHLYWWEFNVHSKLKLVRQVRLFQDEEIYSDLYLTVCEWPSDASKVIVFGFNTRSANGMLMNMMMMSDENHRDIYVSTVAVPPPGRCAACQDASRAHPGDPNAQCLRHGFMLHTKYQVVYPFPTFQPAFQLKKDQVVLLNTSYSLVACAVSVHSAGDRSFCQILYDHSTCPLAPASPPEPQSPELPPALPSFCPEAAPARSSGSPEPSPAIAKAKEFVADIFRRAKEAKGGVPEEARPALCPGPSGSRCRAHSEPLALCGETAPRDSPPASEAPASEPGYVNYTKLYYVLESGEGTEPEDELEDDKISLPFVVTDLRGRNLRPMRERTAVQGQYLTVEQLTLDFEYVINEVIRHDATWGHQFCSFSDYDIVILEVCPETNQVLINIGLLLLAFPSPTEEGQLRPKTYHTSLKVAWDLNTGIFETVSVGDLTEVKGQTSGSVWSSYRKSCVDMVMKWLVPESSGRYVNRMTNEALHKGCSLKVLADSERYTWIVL", "T1 sequence (Q16531 2-1140 partner limits assumed)": "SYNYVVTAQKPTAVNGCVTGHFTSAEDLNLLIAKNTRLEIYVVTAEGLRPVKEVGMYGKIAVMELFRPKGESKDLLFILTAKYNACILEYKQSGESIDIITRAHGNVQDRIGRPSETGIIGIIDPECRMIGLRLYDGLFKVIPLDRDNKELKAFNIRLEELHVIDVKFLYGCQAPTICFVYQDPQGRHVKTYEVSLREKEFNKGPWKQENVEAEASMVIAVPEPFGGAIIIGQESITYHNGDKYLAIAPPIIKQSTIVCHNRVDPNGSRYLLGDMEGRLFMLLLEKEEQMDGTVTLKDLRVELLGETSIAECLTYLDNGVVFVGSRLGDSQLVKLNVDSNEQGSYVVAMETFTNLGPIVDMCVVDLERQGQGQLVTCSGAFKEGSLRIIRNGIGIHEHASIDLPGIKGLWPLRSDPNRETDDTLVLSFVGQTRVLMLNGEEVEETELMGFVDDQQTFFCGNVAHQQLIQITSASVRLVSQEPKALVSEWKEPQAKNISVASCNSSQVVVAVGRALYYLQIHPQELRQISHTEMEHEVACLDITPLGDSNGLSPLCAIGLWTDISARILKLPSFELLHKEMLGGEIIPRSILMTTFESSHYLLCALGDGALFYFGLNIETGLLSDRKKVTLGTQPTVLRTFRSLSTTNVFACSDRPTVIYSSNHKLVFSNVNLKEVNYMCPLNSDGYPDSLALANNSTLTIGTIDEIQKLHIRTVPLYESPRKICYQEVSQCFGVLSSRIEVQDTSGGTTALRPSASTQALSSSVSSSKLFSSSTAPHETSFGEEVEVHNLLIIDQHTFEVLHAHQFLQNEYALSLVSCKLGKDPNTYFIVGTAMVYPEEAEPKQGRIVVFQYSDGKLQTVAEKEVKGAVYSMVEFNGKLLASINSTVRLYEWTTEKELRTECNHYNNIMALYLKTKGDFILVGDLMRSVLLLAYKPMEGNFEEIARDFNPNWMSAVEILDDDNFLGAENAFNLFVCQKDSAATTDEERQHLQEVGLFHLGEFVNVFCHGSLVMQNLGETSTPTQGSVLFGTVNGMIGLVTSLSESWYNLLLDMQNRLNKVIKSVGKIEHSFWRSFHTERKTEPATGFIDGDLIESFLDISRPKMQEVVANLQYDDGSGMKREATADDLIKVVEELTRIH", "experiment": "RBM39 levels by Western blot, WT vs DCAF15-deficient cells", "assay_type": "cell-based", "conditions": "KBM7 12 or 16 h (dCeMM-1); 293T 10 h (dCeMM-2)", "description": "The known DCAF15 molecular glue indisulam was used as a positive control. In brief, indisulam is known to act as a DCAF15-dependent molecular glue that binds DCAF15 and induced proximity between DCAF15 and RBM39, leading to the degradation of the latter. […] Given the structural similarity to indisulam, it was assayed if the two new test compounds would similarly lead to the degradation of RBM39 in a DCAF15-dependent manner. Towards that end, their effect on RBM39 levels in wildype cells as well as cells deficient for DCAF15 levels was tested. KBM7 (WT or knockout, FIG. 15) as well as 293T cells (DCAF15-HiBit overexpression vs knockout, see FIG. 16) were tested in various conditions of dCEMM.1 and/or dCEMM.2, comparing their effect to indisulam.\nPBS-washed cell pellets were lysed in 50 mM Tris pH 7.9, 8M Urea and 1% CHAPS and incubated with shaking at 4° C. for at least 30 min. 20 μg of supernatants were run and transferred for detection. […]"}, "DCAF15": {"molecular_target": "T2, DCAF15 (Homo sapiens, UniProt Q66K64)", "T2 construct": "expressed in transfected cells; host or cells: 293T cells, DCAF15 knocked out, additionally transduced with LgBit", "T2 sequence (Q66K64 whole entry)": "as the sequence (Q66K64 whole entry) above", "experiment": "DCAF15 stabilization, live-cell HiBit/LgBit bioluminescence screen", "assay_type": "cell-based", "conditions": "10 μM, 293T cells expressing HiBit-DCAF15", "description": "Subsequently, in this context, the E3 ligase substrate receptor (SR) stabilization approach was employed in order to identify novel chemical matter that can bind and chemically re-program the substrate receptor DCAF15. To be able to screen a collection of around 8000 small-molecules, a cellular system was developed that enabled monitoring of DCAF15 levels in live cells in multi-well format. To that end, DCAF15 was first knocked out in 293T cells via CRISPR/Cas9 technology. Then, DCAF15 was stably expressed as a HiBit® fusion protein in these cells. After further transducing these cells with LgBit, this allowed live-cell tracing of DCAF15 levels in 384 well format by measuring bioluminescence (FIG. 13).\nIn brief, cells were seeded at a concentration of 250′000 cells/ml in DMEM+10% FCS+25 mM Hepes. The luciferase substrate Endurazine was added at concentrations recommended by the manufacturer. Small-molecules were added at a concentration of 10 μM, and their effect on DCAF15 levels was assayed by continuous bioluminescent imaging (measurements were taken every 120 minutes). In total, 8000 compounds were tested.\nThe known DCAF15 molecular glue indisulam was used as a positive control. In brief, indisulam is known to act as a DCAF15-dependent molecular glue that binds DCAF15 and induced proximity between DCAF15 and RBM39, leading to the degradation of the latter. […]"}, "UBE2M mutant KBM7 cells": {"system": "UBE2M mutant KBM7 cells", "experiment": "cells", "assay_type": "cell-based", "conditions": "KBM7 UBE2M mutant vs WT", "description": "KBM7 cells with the specified genetic backgrounds were grown in IMDM supplemented with 10% FBS and 1% penicillin/streptomycin (pen/strep). AsPC1, HCT116, NCI-H446 and 293T cells were grown in DMEM 10% FBS and 1% pen/strep. MV4; 11, Jurkat and Be (2) C cells were grown in RPMI 10% FBS 1% pen/strep. KBM7, AsPC1 and HCT116 cells expressing Cas9 were generated using the plasmid Lenti_Cas9_Blasti (Addgene #52962). The lentiviral plasmid lentiGuide-Puro (Addgene #52963) was used to express sgRNAs against the genes UBE2M (in KBM7-Cas9, AsPC1-Cas9 and HCT116-Cas9 cells), UBE2G1 (in KBM7-Cas9 cells) and […] (in KBM7-Cas9 cells). The lentiviral plasmid lentiGuide-Puro-IRES-mCherry (modified from Addgene #52963) was used to express sgRNAs against CUL4A (in KBM7-Cas9 cells). The lentiviral plasmid pLenti-PGK-Hygro-DEST-UBE2M was generated by Gateway cloning (empty destination vector Addgene #19066), and used to generate UBE2M^resc KBM7 cells. […]\nFollowing this observation, it was rationalized that novel small molecule degraders can be identified in an unbiased manner, simply by searching for compounds that lose activity in the absence of UBE2M. 2000 small molecules, mostly of unknown function/target, were tested for their antiproliferative effects in human leukemia cells (KBM7). These cells were either transduced with a control sgRNA (KBM7WT), or with an sgRNA targeting UBE2M, leading to a hypomorph (deletion of six amino acids) with a functional impairment (UBE2Mmut).\nFinally, a total of structurally similar analogs was tested to unravel structure-activity relationship of the identified molecules. To that end, their anti-cancer activity was assayed in WT cells, as well as KBM7 cells deficient in genes identified in the genome-wide CRISPR screens (UBE2M, CUL4B, UBE2G1). Moreover, the compounds were also tested in AsPC1 pancreatic cancer cells (WT or UBE2Mmut), MV4; 11 and Jurkat leukemia cells, Be (2) C neuroblastoma cells, and NCI-H446 lung cancer cells (Table 3 at the end of this document)\nKBM7^WT, mutant KBM7 clones (UBE2M^mut, UBE2M^resc, UBE2G1^mut CUL4A^mut, CUL4B^mut), and 3-day doxycycline pretreated KBM7^iCas9_sgDDB1 cells were seeded at a cell density of 50,000 cells/mL in 96-well plates with DMSO or drug, in triplicates. Drugs used: IC020772.1/IC020772.1X, IC021313.2/IC021313.2X, T6938051/T6938051X or THZ531. Cells were treated for 3 days, after which cell viability was assessed according to manufacturer's protocol (CellTiter Glo, Promega G7570). Survival curves and EC50 values were calculated by best-fit analysis of the log 10 drug concentration to fold change of drug-treated cells over DMSO-treated cells. All survival assays included technical triplicates per sample, per experiment."}, "CCNK and DDB1 [2]": {"molecular_target": "T3, CCNK and DDB1 (Homo sapiens, UniProt O75909+Q16531)", "T3 construct": "endogenous in cells; host or cells: KBM7 cells (lysate in A24, intact cells in A25)", "T3 sequence (O75909 whole entry)": "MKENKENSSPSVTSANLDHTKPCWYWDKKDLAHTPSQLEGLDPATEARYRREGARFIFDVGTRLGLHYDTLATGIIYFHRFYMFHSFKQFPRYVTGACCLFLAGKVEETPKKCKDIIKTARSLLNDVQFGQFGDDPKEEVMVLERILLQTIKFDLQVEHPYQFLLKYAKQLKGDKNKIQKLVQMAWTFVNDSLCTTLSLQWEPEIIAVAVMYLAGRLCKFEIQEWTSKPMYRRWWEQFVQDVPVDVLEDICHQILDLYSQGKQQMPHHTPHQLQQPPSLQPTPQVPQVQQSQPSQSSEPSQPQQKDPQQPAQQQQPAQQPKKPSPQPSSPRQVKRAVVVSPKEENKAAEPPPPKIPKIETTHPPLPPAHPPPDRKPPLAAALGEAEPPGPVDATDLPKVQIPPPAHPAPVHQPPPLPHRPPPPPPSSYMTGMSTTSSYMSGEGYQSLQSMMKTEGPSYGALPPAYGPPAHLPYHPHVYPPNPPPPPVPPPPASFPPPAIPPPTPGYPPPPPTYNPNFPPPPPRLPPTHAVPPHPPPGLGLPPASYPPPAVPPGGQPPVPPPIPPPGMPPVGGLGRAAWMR", "T3 sequence (Q16531 2-1140 limits assumed)": "as the sequence (Q16531 2-1140 partner limits assumed) above", "T3 sequence (Q9NYV4 whole entry partner)": "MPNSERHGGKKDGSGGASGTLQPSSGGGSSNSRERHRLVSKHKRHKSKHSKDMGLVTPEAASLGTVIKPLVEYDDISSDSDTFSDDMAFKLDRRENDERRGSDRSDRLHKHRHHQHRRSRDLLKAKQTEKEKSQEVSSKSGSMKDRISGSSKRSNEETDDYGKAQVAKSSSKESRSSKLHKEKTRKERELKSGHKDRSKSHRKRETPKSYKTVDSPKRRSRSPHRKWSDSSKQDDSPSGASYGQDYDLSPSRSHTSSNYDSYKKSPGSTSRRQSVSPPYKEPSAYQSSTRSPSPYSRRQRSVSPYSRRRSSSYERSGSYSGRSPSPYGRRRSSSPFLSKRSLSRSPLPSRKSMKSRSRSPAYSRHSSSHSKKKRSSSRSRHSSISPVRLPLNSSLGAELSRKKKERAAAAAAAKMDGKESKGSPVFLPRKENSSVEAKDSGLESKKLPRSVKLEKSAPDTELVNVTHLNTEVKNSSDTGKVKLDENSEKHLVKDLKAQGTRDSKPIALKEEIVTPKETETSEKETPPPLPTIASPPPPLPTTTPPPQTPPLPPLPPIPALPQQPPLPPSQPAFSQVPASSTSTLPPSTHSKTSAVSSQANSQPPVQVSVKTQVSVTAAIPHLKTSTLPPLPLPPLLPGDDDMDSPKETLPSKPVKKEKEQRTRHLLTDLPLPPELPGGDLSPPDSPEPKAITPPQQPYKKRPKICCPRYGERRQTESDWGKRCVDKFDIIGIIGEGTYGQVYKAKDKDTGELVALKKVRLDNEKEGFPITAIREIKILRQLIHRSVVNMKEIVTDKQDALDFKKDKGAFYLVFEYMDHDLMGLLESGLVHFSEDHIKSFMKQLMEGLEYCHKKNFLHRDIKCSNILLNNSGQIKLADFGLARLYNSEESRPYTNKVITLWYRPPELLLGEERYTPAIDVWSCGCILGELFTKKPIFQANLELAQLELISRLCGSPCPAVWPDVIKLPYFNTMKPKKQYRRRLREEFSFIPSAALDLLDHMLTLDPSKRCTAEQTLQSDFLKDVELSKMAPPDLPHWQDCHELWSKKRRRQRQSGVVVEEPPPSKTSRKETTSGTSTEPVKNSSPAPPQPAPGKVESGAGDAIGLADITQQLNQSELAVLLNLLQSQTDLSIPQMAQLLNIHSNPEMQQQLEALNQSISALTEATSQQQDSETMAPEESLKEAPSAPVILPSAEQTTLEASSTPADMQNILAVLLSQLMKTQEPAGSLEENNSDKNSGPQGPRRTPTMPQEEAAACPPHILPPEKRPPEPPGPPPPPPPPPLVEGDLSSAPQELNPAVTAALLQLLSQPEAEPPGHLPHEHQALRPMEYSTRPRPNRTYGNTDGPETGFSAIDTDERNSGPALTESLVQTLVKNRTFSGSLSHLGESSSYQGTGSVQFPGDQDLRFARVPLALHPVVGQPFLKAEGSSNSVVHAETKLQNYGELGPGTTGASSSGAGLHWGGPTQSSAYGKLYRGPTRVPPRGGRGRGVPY", "experiment": "Drug affinity chromatography with IC021313.2^NH2-coupled beads in KBM7 lysates", "assay_type": "binding", "conditions": "KBM7 whole cell lysates; competed by THZ531 100 μM", "description": "Regarding the first strategy, a variant of IC021313.2 associated with a free amine and named IC021313.2^NH2 allowed immobilizing IC021313.2^NH2 on sepharose beads, and purification of interacting proteins out of whole cell lysates (FIG. 20 a, b). […] Treating lysates with THZ531 and thus covalently blocking the active sites on CDK12/13 prevented DDB1 and CCNK enrichment via the IC021313.2^NH2 resin. This is in line with the fact that cellular co-treatment with THZ531 was able to abrogate drug-induced CCNK degradation (FIG. 19 d).\n100 μL NHS-Activated Sepharose 4 Fast Flow (GE Life Sciences, 17090601) per condition were washed with 500 μL DMSO 3 times (3 min 800 rpm centrifugation at RT). Beads were resuspended in 50 μL DMSO and 2.5 μL IC021313.2^NH2 10 mM and 0.75 μL TEA (Sigma-Aldrich, T0886) were added. […]\n200 million KBM7 cells were resuspended in 2 mL lysis buffer ([…] pH 7.5, 0.2% NP-40, 5% glycerol, 1.5 mM MgCl2, 100 mM NaCl, 1 mM EDTA) supplemented with protease inhibitors (Thermo Scientific, 78437) and benzonase (Merck, US170746-370746) and incubated on ice for 30 min. After centrifugation (full-speed, 4° C., 30 min) supernatant was transferred to a new tube and extracted protein measured with BCA (Fisher Scientific, 23225). […]"}, "CCNK and DDB1 [3]": {"molecular_target": "T3, CCNK and DDB1", "experiment": "Photo-affinity probe (IC021313.2^PAP) pulldown in intact KBM7 cells", "assay_type": "binding", "conditions": "UV crosslink, competed by THZ531", "description": "Regarding the second strategy, an alternative method for drug-target enrichment that is based on cellular treatment with IC021313.2^PAP, a functionalized analog of IC021313.2 containing a photoactive diazirine moiety and an alkyne handle was performed (FIG. 20 d). Following cellular treatment with IC021313.2^PAP, cells were UV crosslinked, lysed and the alkyne handle in IC021313.2^PAP was biotinylated for subsequent immobilization on streptavidin beads and identification of drug-interacting proteins via immunoblots. […] Also in this setup, covalently saturating the CDK12/13 binding site with THZ-531 competed with IC021313.2^PAP enrichment (FIG. 20 e, f). Collectively, both strategies indicate simultaneous engagement of the destabilized CCNK and the CRL4 adaptor protein DDB1 in a CDK12/13-dependent manner.\nIC021313.2^NH2 was conjugated to a constant side chain consisting of a photosensitive diazirine group and an alkyne handle.\n20 million KBM7^WT cells per condition were pre-treated with either DMSO or 100 μM THZ531 (competition condition) for 1h in the presence of 10 μM carfilzomib (Selleckchem, S2853) in serum-free IMDM medium (3 ml/20 million cells/10 cm dish). Then, cells were treated with 10 μM IC020772.1^PAP for 1h. […] Eluates were analyzed by WB. Quantification was performed with ImageJ."}}}
{"smiles": "Cc1ccc(S(=O)(=O)N/N=C/c2cc(Br)ccc2O)cc1", "note": "[dCeMM.1]", "values": [{"measurement": "sensitivity upon inactivation of DCAF15", "setting": "[1]", "value": "pronounced resistance"}, {"measurement": "RBM39 destabilization (Western blot), DCAF15-dependent", "setting": "RBM39", "value": "significant destabilization of RBM39 levels"}, {"measurement": "DCAF15 stabilization (relative luciferase signal over time)", "setting": "DCAF15", "value": "significant DCAF15 stabilization"}, {"measurement": "anti-proliferative effect upon mutation of UBE2M", "setting": "UBE2M mutant KBM7 cells", "value": "loses anti-proliferative activity"}]}
{"smiles": "Nc1ccc2[nH]c(SCC(=O)Nc3ccc(Cl)cn3)nc2c1", "note": "[IC021313.2^NH2]", "values": [{"measurement": "interacting proteins in bead pulldown (immunoblot)", "setting": "CCNK and DDB1 [2]", "value": "both CCNK and DDB1 as interacting proteins"}]}
{"smiles": "C#CCCC1(CCC(=O)Nc2ccc3[nH]c(SCC(=O)Nc4ccc(Cl)cn4)nc3c2)N=N1", "note": "[IC021313.2^PAP]", "values": [{"measurement": "proteins enriched in photo-affinity pulldown (immunoblot)", "setting": "CCNK and DDB1 [3]", "value": "DDB1 and CCNK were enriched in the eluates"}]}
